How the values were obtained:
[1] = Selectivity index, ratio of CC50 for against Macaca fascicularis Primary hepatocyte to EC50 for hepatic stage of Plasmodium berghei sporozoites GFP ANKA; format: toxicity; details: cynomolgus monkey, primary hepatocytes; read-out: Ratio CC50/EC50
[2] = (§1) Cytotoxicity against cynomolgus monkey Primary hepatocyte assessed as cell viability; format: toxicity, cell-based, Macaca fascicularis; details: primary hepatocytes
[3] = tested on: Plasmodium berghei; experiment: Antimalarial activity against hepatic stage of Plasmodium berghei sporozoites GFP ANKA incubated for 3 hrs followed by replacement with fresh media for every 24 hrs by immunostaining analysis; format: functional, organism-based
[4] = tested on: Plasmodium falciparum; experiment: Antiplasmodial activity against blood stage Plasmodium falciparum K1 assessed as reduction in parasite growth incubated for 72 hrs by SYBR Green I fluorescence based method; format: functional, organism-based
[5] = Chromatographic hydrophobicity index, log D of the compound at pH 7.4 by HPLC analysis; format: physicochemical
[6] = Metabolic stability in CD-1 mouse liver microsomes assessed as half life at pH 7.4 measured upto 40 mins in presence of NADP; format: ADME, Microsome
[7] = Solubility of the compound in PBS buffer at 1 mg incubated for 10 mins by HPLC analysis; format: physicochemical
[8] = Effective permeability of compound at pH 7.4 incubated for 4 hrs by PAMPA-GIT assay; format: ADME; details: read-out: Peff
[9] = Metabolic stability in CD-1 mouse liver microsomes assessed as intrinsic clearance at pH 7.4 measured upto 40 mins in presence of NADP; format: ADME, Microsome; details: read-out: CLH
[10] = molecular target: Voltage-gated inwardly rectifying potassium channel KCNH2 (Homo sapiens, UniProt Q12809); experiment: Inhibition of human ERG incubated for 4 hrs by fluorescence polarization assay; format: toxicity
Sequence of Voltage-gated inwardly rectifying potassium channel KCNH2 (Q12809 whole entry): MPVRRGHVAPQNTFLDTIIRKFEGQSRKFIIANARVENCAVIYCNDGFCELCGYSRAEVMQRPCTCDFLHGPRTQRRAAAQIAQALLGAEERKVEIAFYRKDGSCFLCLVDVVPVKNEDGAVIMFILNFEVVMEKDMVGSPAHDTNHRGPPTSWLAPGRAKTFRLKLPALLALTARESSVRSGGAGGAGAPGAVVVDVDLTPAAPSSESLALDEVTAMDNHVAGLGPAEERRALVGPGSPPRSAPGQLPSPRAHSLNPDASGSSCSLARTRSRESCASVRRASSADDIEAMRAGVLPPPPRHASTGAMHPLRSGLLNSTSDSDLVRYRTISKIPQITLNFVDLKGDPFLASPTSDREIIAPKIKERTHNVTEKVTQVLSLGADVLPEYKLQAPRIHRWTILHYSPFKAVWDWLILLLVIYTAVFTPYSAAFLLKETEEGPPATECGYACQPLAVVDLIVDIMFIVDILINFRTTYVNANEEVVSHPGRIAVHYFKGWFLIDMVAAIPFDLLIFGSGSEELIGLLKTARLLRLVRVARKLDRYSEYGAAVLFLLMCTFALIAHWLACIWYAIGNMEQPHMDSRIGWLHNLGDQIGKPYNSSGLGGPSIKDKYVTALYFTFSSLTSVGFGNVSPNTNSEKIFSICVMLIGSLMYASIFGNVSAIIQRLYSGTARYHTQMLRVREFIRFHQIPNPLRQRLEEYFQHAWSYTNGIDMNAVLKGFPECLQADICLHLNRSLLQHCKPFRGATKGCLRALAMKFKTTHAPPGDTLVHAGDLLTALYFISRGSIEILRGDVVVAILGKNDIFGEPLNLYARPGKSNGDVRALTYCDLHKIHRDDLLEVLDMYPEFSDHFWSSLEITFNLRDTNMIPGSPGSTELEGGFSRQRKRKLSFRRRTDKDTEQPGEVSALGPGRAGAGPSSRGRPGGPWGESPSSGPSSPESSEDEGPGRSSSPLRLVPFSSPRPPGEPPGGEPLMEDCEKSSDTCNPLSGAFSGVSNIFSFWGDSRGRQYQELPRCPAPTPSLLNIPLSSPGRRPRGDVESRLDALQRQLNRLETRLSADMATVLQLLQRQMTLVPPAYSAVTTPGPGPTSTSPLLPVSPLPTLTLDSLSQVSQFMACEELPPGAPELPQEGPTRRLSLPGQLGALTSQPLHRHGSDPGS

[11] = tested on: Hepatocyte; experiment: as §1; format: toxicity, cell-based, Macaca fascicularis; details: hepatocytes
[12] = Effective permeability of compound at pH 6.0 incubated for 4 hrs by PAMPA-GIT assay; format: ADME; details: read-out: Peff
[13] = Effective permeability of compound at pH 5 incubated for 4 hrs by PAMPA-GIT assay; format: ADME; details: read-out: Peff
[14] = Plasmodium falciparum, K1, 72 h

Cc1ccc(-c2cc3nc(NC(C)(C)C)[nH]c(=O)c3s2)cc1
selectivity ratio [1]: > 8.2
CC50 [2]: > 200 µM
EC50 ([3]; Plasmodium berghei, GFP ANKA): 24.3 µM
EC50 [4, 14]: 0.2 µM

Cc1ccc(-c2cc3nc(NC(C)(C)C)[nH]c(=O)c3s2)cc1.Cl
chromatographic logD [5]: 4.1
half-life [6]: 11 min
solubility at 10 min [7]: 7.92 µM
Papp at 4 h [8]: 0.46 ×10⁻⁶ cm/s
microsomal CLint [9]: 240 µL/min/mg

Cc1ccc(-c2cc3nc(NC(C)(C)C)nc(NC4CCCC4)c3s2)cc1
EC50 [4, 14]: 1.3 µM

CCN(CC)CCCNc1nc(NC(C)(C)C)nc2cc(-c3ccc(C)cc3)sc12.Cl.Cl
IC50 [10]: 1.41 µM
chromatographic logD [5]: 4.23
CC50 [11]: 27.6 µM
half-life [6]: 37 min
solubility at 10 min [7]: 1400 µM
EC50 [3]: 12.3 µM
Papp at 4 h [12]: 46.6 ×10⁻⁶ cm/s
Papp at 4 h [8]: 63.1 ×10⁻⁶ cm/s
microsomal CLint [9]: 61 µL/min/mg
Papp at 4 h [13]: 48.9 ×10⁻⁶ cm/s

Cc1ccc(-c2cc3nc(NC(C)(C)C)nc(N4CCC(C)CC4)c3s2)cc1
selectivity ratio [1]: 1.5
CC50 [2]: 52.5 µM
EC50 ([3]; Plasmodium berghei, GFP ANKA): 35.3 µM
EC50 [4, 14]: 0.7 µM

Cc1ccc(-c2cc3nc(NC(C)(C)C)nc(N4CCNCC4)c3s2)cc1
EC50 [4, 14]: 1.6 µM

Cc1ccc(-c2cc3nc(NC(C)(C)C)nc(N4CCCCC4)c3s2)cc1
EC50 [4, 14]: 1.2 µM

CCN(CC)CCNc1nc(NC(C)(C)C)nc2cc(-c3ccc(C)cc3)sc12
selectivity ratio [1]: 2.2
CC50 [2]: 32.6 µM
EC50 ([3]; Plasmodium berghei, GFP ANKA): 14.6 µM
EC50 [4, 14]: 0.3 µM

CCN(CC)CCNc1nc(NC(C)(C)C)nc2cc(-c3ccc(C)cc3)sc12.Cl.Cl
IC50 [10]: 1.07 µM
chromatographic logD [5]: 4.81
CC50 [11]: 59.1 µM
half-life [6]: 37 min
solubility at 10 min [7]: 1140 µM
EC50 [3]: 14.4 µM
Papp at 4 h [12]: 52.1 ×10⁻⁶ cm/s
Papp at 4 h [8]: 73.9 ×10⁻⁶ cm/s
microsomal CLint [9]: 63 µL/min/mg
Papp at 4 h [13]: 51.2 ×10⁻⁶ cm/s

Cc1ccc(-c2cc3nc(NC(C)(C)C)nc(N4CCC(NCc5ccc(Br)cc5)CC4)c3s2)cc1
selectivity ratio [1]: 1.6
CC50 [2]: 20.7 µM
EC50 ([3]; Plasmodium berghei, GFP ANKA): 13.1 µM
EC50 [4, 14]: 0.7 µM

COc1ccc(CNC2CCN(c3nc(NC(C)(C)C)nc4cc(-c5ccc(C)cc5)sc34)CC2)cc1
selectivity ratio [1]: 2
CC50 [2]: 28.6 µM
EC50 ([3]; Plasmodium berghei, GFP ANKA): 14 µM
EC50 [4, 14]: 0.5 µM

Cc1ccc(CSc2cnc(NC(C)(C)C)nc2N2CCC(NCc3cccc(Cl)c3)CC2)cc1
EC50 [4, 14]: 1.2 µM

Cc1ccc(-c2cc3nc(NC(C)(C)C)nc(N4CCSCC4)c3s2)cc1
EC50 [4, 14]: 4.9 µM

Cc1ccc(-c2cc3nc(NC(C)(C)C)nc(N4CCC(NCc5ccccc5)CC4)c3s2)cc1
selectivity ratio [1]: 2.7
CC50 [2]: 43.6 µM
EC50 ([3]; Plasmodium berghei, GFP ANKA): 16.1 µM
EC50 [4, 14]: 0.7 µM

Cc1ccc(-c2cc3nc(NC(C)(C)C)nc(NCCCN(C)C)c3s2)cc1.Cl.Cl
IC50 [10]: > 100 µM
chromatographic logD [5]: 4.29
CC50 [11]: 35.5 µM
half-life [6]: > 40 min
solubility at 10 min [7]: 1990 µM
EC50 [3]: 14.4 µM
Papp at 4 h [12]: 47.8 ×10⁻⁶ cm/s
Papp at 4 h [8]: 67.3 ×10⁻⁶ cm/s
EC50 [4]: 0.2 µM
microsomal CLint [9]: 33 µL/min/mg
Papp at 4 h [13]: 36.2 ×10⁻⁶ cm/s

Cc1ccc(-c2cc3nc(NC(C)(C)C)nc(N4CCN(C)CC4)c3s2)cc1
EC50 [4, 14]: 1.2 µM

Cc1ccc(-c2cc3nc(NC(C)(C)C)nc(NCCN(C)C)c3s2)cc1
selectivity ratio [1]: 1
CC50 [11]: 14 µM
EC50 ([3]; Plasmodium berghei, GFP ANKA): 13.8 µM
EC50 [4, 14]: 0.3 µM

Cc1ccc(-c2cc3nc(NC(C)(C)C)nc(N4CCC(NCc5ccc(C(F)(F)F)cc5)CC4)c3s2)cc1
EC50 [4, 14]: 1.7 µM

Cc1ccc(-c2cc3nc(NC(C)(C)C)nc(N4CCCC4)c3s2)cc1
selectivity ratio [1]: 1.2
CC50 [2]: 17.5 µM
EC50 ([3]; Plasmodium berghei, GFP ANKA): 14.3 µM
EC50 [4, 14]: 0.9 µM

Cc1ccc(-c2cc3nc(NC(C)(C)C)nc(N4CCC(NCc5cccc(C(F)(F)F)c5)CC4)c3s2)cc1
EC50 [4, 14]: 1.3 µM

Cc1ccc(-c2cc3nc(NC(C)(C)C)nc(N4CCC4)c3s2)cc1
selectivity ratio [1]: 1.7
CC50 [2]: 25.8 µM
EC50 ([3]; Plasmodium berghei, GFP ANKA): 15.1 µM
EC50 [4, 14]: 0.7 µM

Cc1ccc(CNC2CCN(c3nc(NC(C)(C)C)nc4cc(-c5ccc(C)cc5)sc34)CC2)cc1
selectivity ratio [1]: 2.3
CC50 [2]: 35.5 µM
EC50 ([3]; Plasmodium berghei, GFP ANKA): 15.4 µM
EC50 [4, 14]: 0.7 µM

Cc1ccc(-c2cc3nc(NC(C)(C)C)nc(NC4CCCCC4)c3s2)cc1
EC50 [4, 14]: 2.5 µM

Cc1ccc(-c2cc3nc(NC(C)(C)C)nc(N4CCC(NC(=O)OC(C)(C)C)CC4)c3s2)cc1
EC50 [4, 14]: 2.1 µM

Cc1ccc(-c2cc3nc(NC(C)(C)C)nc(N4CCC(NCc5ccc(Cl)cc5)CC4)c3s2)cc1
selectivity ratio [1]: 2.5
CC50 [2]: 36.1 µM
EC50 ([3]; Plasmodium berghei, GFP ANKA): 14.2 µM
EC50 [4, 14]: 1 µM

Cc1ccc(-c2cc3nc(NC(C)(C)C)nc(N4CCC(N)CC4)c3s2)cc1
selectivity ratio [1]: 1
CC50 [2]: 31.6 µM
EC50 ([3]; Plasmodium berghei, GFP ANKA): 31.4 µM
EC50 [4, 14]: 1 µM

Cc1ccc(-c2cc3nc(NC(C)(C)C)nc(NC4CCC4)c3s2)cc1
selectivity ratio [1]: 1.3
CC50 [2]: 8.8 µM
EC50 ([3]; Plasmodium berghei, GFP ANKA): 6.5 µM
EC50 [4, 14]: 0.9 µM

Cc1ccc(-c2cc3nc(NC(C)(C)C)nc(N4CCOCC4)c3s2)cc1
EC50 [4, 14]: 1.6 µM

Cc1ccc(-c2cc3nc(NC(C)(C)C)nc(NCCN(C)C)c3s2)cc1.Cl.Cl
IC50 [10]: 3.4 µM
chromatographic logD [5]: 4.5
CC50 [11]: 32.5 µM
half-life [6]: 37 min
solubility at 10 min [7]: 1640 µM
EC50 [3]: 14.2 µM
Papp at 4 h [12]: 41.1 ×10⁻⁶ cm/s
Papp at 4 h [8]: 64.9 ×10⁻⁶ cm/s
EC50 [4]: 0.4 µM
microsomal CLint [9]: 64 µL/min/mg
Papp at 4 h [13]: 43 ×10⁻⁶ cm/s

Cc1ccc(-c2cc3nc(NC(C)(C)C)nc(N4CCC(NCc5ccc([N+](=O)[O-])cc5)CC4)c3s2)cc1
selectivity ratio [1]: 2.2
CC50 [2]: 15.8 µM
EC50 ([3]; Plasmodium berghei, GFP ANKA): 7.3 µM
EC50 [4, 14]: 0.7 µM

CCN(CC)CCCNc1nc(NC(C)(C)C)nc2cc(-c3ccc(C)cc3)sc12
selectivity ratio [1]: 2.2
CC50 [2]: 25.8 µM
EC50 ([3]; Plasmodium berghei, GFP ANKA): 11.5 µM
EC50 [4, 14]: 0.2 µM

Cc1ccc(-c2cc3nc(NC(C)(C)C)nc(NC4CC4)c3s2)cc1
EC50 [4, 14]: 1.1 µM

Cc1ccc(-c2cc3nc(NC(C)(C)C)nc(NCCCN(C)C)c3s2)cc1
selectivity ratio [1]: > 6.5
CC50 [11]: > 100 µM
EC50 ([3]; Plasmodium berghei, GFP ANKA): 15.3 µM
EC50 [4, 14]: 0.3 µM

CCN(CC)CCCC(C)Nc1ccnc2cc(Cl)ccc12 (stereo not given) [CHLOROQUINE]
EC50 [4, 14]: 0.8 µM

C[C@H]1c2cccc(O)c2C(=O)C2=C(O)[C@]3(O)C(=O)C(C(N)=O)=C(O)[C@@H](N(C)C)[C@@H]3[C@@H](O)[C@@H]21 [DOXYCYCLINE]
EC50 [4, 14]: 5 µM

From ChEMBL document CHEMBL5346874, “New antiplasmodial 4-amino-thieno[3,2-d]pyrimidines with improved intestinal permeability and microsomal stability” (Eur J Med Chem, 2023)
